Measurements reported in ChEMBL document CHEMBL3045011, “Synthesis and Herbicidal Activities of 2-(5-Isoxazolyloxy)-acetamide Derivatives” (J Pestic Sci, 1998).
The source made the active and inactive calls. The calls are words filed in the database; no cut-off is given here.

What was measured:
Echinochloa crus-galli [1] = assay: Herbicidal activity against Echinochloa crus-galli (barnyard grass) assessed as seedling death under green house at 0.5 kg/ha at 25 degC measured after 4 weeks; format: functional, organism-based
Digitaria ciliaris [2] = assay: Herbicidal activity against Digitaria ciliaris assessed as seedling death under green house at 0.5 kg/ha at 25 degC measured after 4 weeks; format: functional, organism-based
Echinochloa crus-galli [3] = assay: Herbicidal activity against Echinochloa crus-galli (barnyard grass) assessed as seedling death under green house at 1 kg/ha at 25 degC measured after 4 weeks; format: functional, organism-based
Digitaria ciliaris [4] = assay: Herbicidal activity against Digitaria ciliaris assessed as seedling death under green house at 1 kg/ha at 25 degC measured after 4 weeks; format: functional, organism-based
Amaranthus viridis [5] = assay: Herbicidal activity against Amaranthus viridis assessed as seedling death under green house at 1 kg/ha at 25 degC measured after 4 weeks; format: functional, organism-based
Amaranthus viridis [6] = assay: Herbicidal activity against Amaranthus viridis assessed as seedling death under green house at 0.5 kg/ha at 25 degC measured after 4 weeks; format: functional, organism-based
Digitaria ciliaris [7] = assay: Herbicidal activity against Digitaria ciliaris assessed as seedling death under green house at 4 kg/ha at 25 degC measured after 4 weeks; format: functional, organism-based
Echinochloa crus-galli [8] = assay: Herbicidal activity against Echinochloa crus-galli (barnyard grass) assessed as seedling death under green house at 4 kg/ha at 25 degC measured after 4 weeks; format: functional, organism-based
Persicaria lapathifolia [9] = assay: Herbicidal activity against Persicaria lapathifolia assessed as seedling death under green house at 4 kg/ha at 25 degC measured after 4 weeks; format: functional, organism-based
Amaranthus viridis [10] = assay: Herbicidal activity against Amaranthus viridis assessed as seedling death under green house at 4 kg/ha at 25 degC measured after 4 weeks; format: functional, organism-based
Persicaria lapathifolia [11] = assay: Herbicidal activity against Persicaria lapathifolia assessed as seedling death under green house at 0.5 kg/ha at 25 degC measured after 4 weeks; format: functional, organism-based
Persicaria lapathifolia [12] = assay: Herbicidal activity against Persicaria lapathifolia assessed as seedling death under green house at 1 kg/ha at 25 degC measured after 4 weeks; format: functional, organism-based
Glycine max = assay: Toxicity in Glycine max cv. Tamahomare (soybean) assessed as seedling death under green house at 0.5 kg/ha at 25 degC measured after 4 weeks by crop selectivity assay; format: organism-based; details: in vivo, 672 h
Gossypium hirsutum [13] = assay: Toxicity in Gossypium hirsutum cv. Hakushuu (cotton) assessed as seedling death under green house at 0.5 kg/ha at 25 degC measured after 4 weeks by crop selectivity assay; format: organism-based; details: in vivo, 672 h
Gossypium hirsutum [14] = assay: Toxicity in Gossypium hirsutum cv. Hakushuu (cotton) assessed as seedling death under green house at 0.25 kg/ha at 25 degC measured after 4 weeks by crop selectivity assay; format: organism-based; details: in vivo, 672 h
Amaranthus viridis [15] = assay: Herbicidal activity against Amaranthus viridis assessed as seedling death under green house at 0.25 kg/ha at 25 degC measured after 4 weeks; format: functional, organism-based
Digitaria ciliaris [16] = assay: Herbicidal activity against Digitaria ciliaris assessed as seedling death under green house at 0.25 kg/ha at 25 degC measured after 4 weeks; format: functional, organism-based
Echinochloa crus-galli [17] = assay: Herbicidal activity against Echinochloa crus-galli (barnyard grass) assessed as seedling death under green house at 0.25 kg/ha at 25 degC measured after 4 weeks; format: functional, organism-based

| Compound | Activity (Echinochloa crus-galli [1]) | Activity (Digitaria ciliaris [2]) | Activity (Echinochloa crus-galli [3]) | Activity (Digitaria ciliaris [4]) | Activity (Amaranthus viridis [5]) | Activity (Persicaria lapathifolia [11]) | further results |
| --- | --- | --- | --- | --- | --- | --- | --- |
| CCc1cccc(N(C)C(=O)COc2onc(C(F)(F)F)c2C)c1 | Active | Active | Active | Active | Active |  | Activity (Amaranthus viridis [6]): Active |
| CN(C(=O)COc1cc(-c2ccccc2)no1)c1ccccc1 |  |  |  |  |  |  | Activity (Digitaria ciliaris [7]): inactive; Activity (Echinochloa crus-galli [8]): inactive; Activity (Persicaria lapathifolia [9]): inactive; Activity (Amaranthus viridis [10]): inactive |
| Cc1c(C(F)(F)F)noc1OCC(=O)N(C)C(C)(C)C |  |  |  |  |  |  | Activity (Digitaria ciliaris [7]): inactive; Activity (Echinochloa crus-galli [8]): inactive; Activity (Persicaria lapathifolia [9]): inactive; Activity (Amaranthus viridis [10]): inactive |
| Cc1c(C(F)(F)F)noc1OCC(=O)N(C)c1ccccc1I | Active | Active | Active | Active | Active | inactive | Activity (Amaranthus viridis [6]): Active |
| Cc1c(C(F)(F)F)noc1OCC(=O)N(C)c1ccccc1F | Active | Active | Active | Active | Active |  | Activity (Amaranthus viridis [6]): Active |
| Cc1c(C(F)(F)F)noc1OCC(=O)N(C)c1cccc(Cl)c1 | Active | Active | Active | Active |  |  |  |
| Cc1ccc(C)c(N(C)C(=O)COc2onc(C(F)(F)F)c2C)c1 | Active |  | Active |  |  | inactive | Activity (Persicaria lapathifolia [12]): inactive |
| CCc1c(C(F)(F)F)noc1OCC(=O)N(C)c1ccccc1 | Active | Active | Active | Active | Active |  | Activity (Glycine max): Non-toxic; Activity (Gossypium hirsutum [13]): Non-toxic |
| Cc1c(C(F)(F)F)noc1OCC(=O)N(C)c1ccc([N+](=O)[O-])cc1 |  |  |  |  |  |  | Activity (Persicaria lapathifolia [9]): inactive; Activity (Amaranthus viridis [10]): inactive |
| COc1cccc(N(C)C(=O)COc2onc(C(F)(F)F)c2C)c1 | Active | Active | Active | Active | Active |  |  |
| CN(C(=O)COc1cc(C(C)(C)C)no1)c1ccccc1 |  |  |  |  |  |  | Activity (Digitaria ciliaris [7]): inactive; Activity (Persicaria lapathifolia [9]): inactive; Activity (Amaranthus viridis [10]): inactive |
| CCN(C(=O)COc1onc(C(F)(F)F)c1C)c1ccccc1 | Active | Active | Active | Active |  |  |  |
| Cc1c(C(F)(F)F)noc1OCC(=O)Nc1ccccc1 |  |  |  |  |  |  | Activity (Digitaria ciliaris [7]): inactive; Activity (Echinochloa crus-galli [8]): inactive; Activity (Persicaria lapathifolia [9]): inactive; Activity (Amaranthus viridis [10]): inactive |
| Cc1cccc(C)c1N(C)C(=O)COc1onc(C(F)(F)F)c1C |  |  |  |  |  |  | Activity (Digitaria ciliaris [7]): inactive; Activity (Echinochloa crus-galli [8]): inactive; Activity (Persicaria lapathifolia [9]): inactive; Activity (Amaranthus viridis [10]): inactive |
| CCCCCN(C(=O)COc1onc(C(F)(F)F)c1C)c1ccccc1 |  |  |  |  |  |  | Activity (Digitaria ciliaris [7]): inactive; Activity (Persicaria lapathifolia [9]): inactive; Activity (Amaranthus viridis [10]): inactive |
| Cc1c(Cl)cccc1N(C)C(=O)COc1onc(C(F)(F)F)c1C | Active | Active | Active | Active |  |  |  |
| CCc1noc(OCC(=O)N(C)c2ccccc2)c1-c1ccccc1 |  |  |  |  |  |  | Activity (Persicaria lapathifolia [9]): inactive |
| Cc1c(C(F)(F)F)noc1OCC(=O)N(C)CC(C)C |  | Active | Active | Active |  |  |  |
| Cc1c(C(F)(F)F)noc1OCC(=O)N(C)c1ccccc1Cl | Active | Active | Active | Active | Active |  | Activity (Persicaria lapathifolia [12]): Active; Activity (Gossypium hirsutum [14]): Non-toxic; Activity (Amaranthus viridis [15]): Active; Activity (Digitaria ciliaris [16]): Active; Activity (Echinochloa crus-galli [17]): Active; Activity (Amaranthus viridis [6]): Active |
| Cc1ccc(N(C)C(=O)COc2onc(C(F)(F)F)c2C)cc1 | Active | Active | Active | Active | Active |  |  |
| Cc1c(C(F)(F)F)noc1OCC(=O)N(c1ccccc1)C(C)C | Active | Active | Active | Active |  |  |  |

| Compound | Activity (Echinochloa crus-galli [1]) | Activity (Digitaria ciliaris [2]) | Activity (Echinochloa crus-galli [3]) | Activity (Digitaria ciliaris [4]) | Activity (Amaranthus viridis [5]) | Activity (Persicaria lapathifolia [11]) | further results |
| --- | --- | --- | --- | --- | --- | --- | --- |
| Cc1c(C(F)(F)F)noc1OCC(=O)N(C)c1ccc(F)cc1 | Active | Active | Active | Active |  |  |  |
| CCCN(C(=O)COc1onc(C(F)(F)F)c1C)c1ccccc1 | Active |  | Active | Active |  |  |  |
| Cc1c(C(F)(F)F)noc1OCC(=O)N(C)c1c(F)cccc1F |  |  | Active |  |  | inactive | Activity (Persicaria lapathifolia [12]): inactive |
| Cc1cccc(N(C)C(=O)COc2onc(C(F)(F)F)c2C)c1C | Active | Active | Active | Active |  | inactive |  |
| Cc1ccccc1N(C)C(=O)COc1onc(C(F)(F)F)c1C | Active | Active | Active | Active | Active |  | Activity (Amaranthus viridis [6]): Active |
| Cc1cccc(N(C)C(=O)COc2onc(C(F)(F)F)c2C)c1 | Active | Active | Active | Active | Active |  | Activity (Amaranthus viridis [6]): Active |
| CCc1ccccc1N(C)C(=O)COc1onc(C(F)(F)F)c1C |  | Active | Active | Active |  | inactive | Activity (Persicaria lapathifolia [12]): inactive |
| Cc1c(C(F)(F)F)noc1OCC(=O)N(C)c1cccc([N+](=O)[O-])c1 |  |  |  | Active |  | inactive | Activity (Amaranthus viridis [6]): inactive |
| Cc1c(C(F)(F)F)noc1OCC(=O)N(C)c1ccc(Br)cc1 |  | Active | Active | Active | inactive | inactive | Activity (Persicaria lapathifolia [12]): inactive; Activity (Amaranthus viridis [6]): inactive |
| Cc1c(C(F)(F)F)noc1OCC(=O)N(C)c1ccc(Cl)cc1 |  |  | Active | Active | inactive | inactive | Activity (Persicaria lapathifolia [12]): inactive; Activity (Amaranthus viridis [6]): inactive |
| Cc1c(C(F)(F)F)noc1OCC(=O)N(C)c1cccc(Br)c1 | Active | Active | Active | Active |  |  |  |
| CCc1ccc(N(C)C(=O)COc2onc(C(F)(F)F)c2C)cc1 | Active | Active | Active | Active |  | inactive | Activity (Persicaria lapathifolia [12]): inactive |
| CCCc1ccc(N(C)C(=O)COc2onc(C(F)(F)F)c2C)cc1 | Active |  | Active |  |  | inactive | Activity (Persicaria lapathifolia [12]): inactive |
| Cc1c(C(F)(F)F)noc1OCC(=O)N(C)c1ccccc1-c1ccccc1 |  |  |  |  |  |  | Activity (Digitaria ciliaris [7]): inactive; Activity (Echinochloa crus-galli [8]): inactive; Activity (Persicaria lapathifolia [9]): inactive; Activity (Amaranthus viridis [10]): inactive |
| COc1ccc(N(C)C(=O)COc2onc(C(F)(F)F)c2C)cc1 | Active | Active | Active | Active | Active | inactive | Activity (Amaranthus viridis [6]): Active |
| CN(C(=O)COc1onc(-c2ccccc2)c1Br)c1ccccc1 |  |  |  |  |  |  | Activity (Persicaria lapathifolia [9]): inactive; Activity (Amaranthus viridis [10]): inactive |
| COc1ccccc1N(C)C(=O)COc1onc(C(F)(F)F)c1C | Active | Active | Active | Active |  |  |  |
| Cc1c(C(F)(F)F)noc1OCC(=O)N(C)c1c(Cl)cccc1Cl |  |  |  |  |  |  | Activity (Persicaria lapathifolia [9]): inactive; Activity (Amaranthus viridis [10]): inactive |
| CCCCN(C)C(=O)COc1onc(C(F)(F)F)c1C |  |  |  |  |  | inactive |  |
| Cc1c(C(F)(F)F)noc1OCC(=O)N(C)c1ccccc1C(C)C |  |  | Active | Active | inactive | inactive | Activity (Persicaria lapathifolia [12]): inactive; Activity (Amaranthus viridis [6]): inactive |
| CCC(C)N(C)C(=O)COc1onc(C(F)(F)F)c1C (stereo unspecified) | Active | Active |  | Active |  |  |  |
